ChEMBL document CHEMBL1201862, “PubChem BioAssay data set” (2004)
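Cells were grown in 96-well plates and exposed to each compound for 48 hours at five concentrations; endpoints were interpolated linearly between bracketing concentrations, or set to the highest concentration if not reached. Here, GI50 denotes the concentration required for 50% inhibition of growth.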 Calls of active or inactive are those of the source. Rule as the data show it: active = GI50 up to about 1.1 µM and inactive = higher.

Columns and labels:
Assay in all cases: NCI anticancer screen, dose series, 48 h
A498 = tested on: A498
A549 = tested on: A549
BT-549 = tested on: BT-549
CCRF-CEM = tested on: CCRF-CEM
HCT-15 = tested on: HCT-15
HOP-62 = tested on: HOP-62
LOX IMVI = tested on: LOX IMVI
MDA-MB-231 = tested on: MDA-MB-231
MDA-N = tested on: MDA-N
NCI-H226 = tested on: NCI-H226
NCI-H522 = tested on: NCI-H522
NCI/ADR-RES = tested on: NCI/ADR-RES
OVCAR-8 = tested on: OVCAR-8
RPMI-8226 = tested on: RPMI-8226
SF-295 = tested on: SF-295
SK-MEL-2 = tested on: SK-MEL-2
SK-OV-3 = tested on: SK-OV-3
SNB-19 = tested on: SNB-19
SNB-75 = tested on: SNB-75
UO-31 = tested on: UO-31

## CCOC(=O)/C=C(\C(=O)OCC)n1ccc(=O)[nH]c1=O
A498
  GI50: 19.1 µM (inactive)
A549
  GI50: 29.8 µM (inactive)
BT-549
  GI50: 16.7 µM (inactive)
CCRF-CEM
  GI50: 2.16 µM (inactive)
HCT-15
  GI50: 6.27 µM
HOP-62
  GI50: 26.9 µM (inactive)
LOX IMVI
  GI50: 12.8 µM (inactive)
MDA-MB-231
  GI50: 14.3 µM (inactive)
MDA-N
  GI50: 22.6 µM (inactive)
NCI-H226
  GI50: 13.3 µM (inactive)
NCI-H522
  GI50: 0.684 µM (active)
NCI/ADR-RES
  GI50: 26.2 µM (inactive)
OVCAR-8
  GI50: 24 µM (inactive)
RPMI-8226
  GI50: 13.1 µM (inactive)
SF-295
  GI50: > 60.8 µM (inactive)
SK-MEL-2
  GI50: 23.4 µM (inactive)
SK-OV-3
  GI50: 22.4 µM (inactive)
SNB-19
  GI50: 52.2 µM (inactive)
SNB-75
  GI50: 17.1 µM (inactive)
UO-31
  GI50: 16.9 µM (inactive)

## CN(C)CCNC(=O)c1cccc2c(NC(CS)C(=O)O)c3ccccc3nc12 (stereo not given)
A498
  GI50: > 10 µM (inactive)
A549
  GI50: 4.62 µM (inactive)
BT-549
  GI50: 14.5 µM (inactive)
CCRF-CEM
  GI50: 6.37 µM (inactive)
HCT-15
  GI50: 3.72 µM
HOP-62
  GI50: 5.32 µM (inactive)
LOX IMVI
  GI50: 4.41 µM (inactive)
MDA-MB-231
  GI50: 6.18 µM (inactive)
MDA-N
  GI50: 4.55 µM (inactive)
NCI-H226
  GI50: 5.53 µM (inactive)
NCI-H522
  GI50: 4.19 µM (inactive)
NCI/ADR-RES
  GI50: 9.82 µM (inactive)
OVCAR-8
  GI50: 13.5 µM (inactive)
RPMI-8226
  GI50: 7.52 µM (inactive)
SF-295
  GI50: 5.32 µM (inactive)
SK-MEL-2
  GI50: 12.1 µM (inactive)
SK-OV-3
  GI50: 9.86 µM (inactive)
SNB-19
  GI50: 7.52 µM (inactive)
SNB-75
  GI50: 14.4 µM (inactive)
UO-31
  GI50: 3.6 µM (inactive)

## CC[C@H]1CN2CCc3cc(OC)c(OC)cc3[C@@H]2C[C@@H]1C[C@H]1NCCc2c1[nH]c1ccc(O)cc21 [TUBULOSINE]
A498
  GI50: 0.0301 µM (active)
A549
  GI50: < 0.01 µM (active)
BT-549
  GI50: 0.191 µM (active)
CCRF-CEM
  GI50: < 0.01 µM (active)
HCT-15
  GI50: 0.384 µM
HOP-62
  GI50: < 0.01 µM (active)
LOX IMVI
  GI50: < 0.01 µM (active)
MDA-MB-231
  GI50: < 0.01 µM (active)
MDA-N
  GI50: < 0.01 µM (active)
NCI-H226
  GI50: < 0.0113 µM (active)
NCI-H522
  GI50: < 0.01 µM (active)
NCI/ADR-RES
  GI50: 1.73 µM (inactive)
OVCAR-8
  GI50: 0.0125 µM (active)
RPMI-8226
  GI50: < 0.0133 µM (active)
SF-295
  GI50: 0.0195 µM (active)
SK-MEL-2
  GI50: 0.0137 µM (active)
SK-OV-3
  GI50: 0.0222 µM (active)
SNB-19
  GI50: < 0.01 µM (active)
SNB-75
  GI50: < 0.01 µM (active)
UO-31
  GI50: 0.326 µM (active)

## Nc1cc(O)c2c(c1O)C(=O)C=CC2=O
A498
  GI50: 22.2 µM (inactive)
A549
  GI50: 19.6 µM (inactive)
BT-549
  GI50: 16.7 µM (inactive)
CCRF-CEM
  GI50: 2.19 µM (inactive)
HCT-15
  GI50: 7.41 µM
HOP-62
  GI50: 27.3 µM (inactive)
LOX IMVI
  GI50: 5.58 µM (inactive)
MDA-MB-231
  GI50: 13.6 µM (inactive)
MDA-N
  GI50: 6.1 µM (inactive)
NCI-H226
  GI50: 67.1 µM (inactive)
NCI-H522
  GI50: 5.9 µM (inactive)
NCI/ADR-RES
  GI50: 10 µM (inactive)
OVCAR-8
  GI50: 8.24 µM (inactive)
RPMI-8226
  GI50: 5.2 µM (inactive)
SF-295
  GI50: 17.3 µM (inactive)
SK-MEL-2
  GI50: 14 µM (inactive)
SK-OV-3
  GI50: 47 µM (inactive)
SNB-19
  GI50: 23.8 µM (inactive)
SNB-75
  GI50: 30.7 µM (inactive)
UO-31
  GI50: 10.9 µM (inactive)

## CCCCCCCCCCCCCCCCCc1cccc(OCOCCOC)c1C(=O)O
A498
  GI50: 17.8 µM (inactive)
A549
  GI50: 18.7 µM (inactive)
BT-549
  GI50: 16.9 µM (inactive)
CCRF-CEM
  GI50: 26.7 µM (inactive)
HCT-15
  GI50: 19.3 µM
HOP-62
  GI50: 18.8 µM (inactive)
LOX IMVI
  GI50: 24.6 µM (inactive)
MDA-MB-231
  GI50: 19.7 µM (inactive)
MDA-N
  GI50: 19.1 µM (inactive)
NCI-H226
  GI50: 17 µM (inactive)
NCI-H522
  GI50: 14.9 µM (inactive)
NCI/ADR-RES
  GI50: 14.5 µM (inactive)
OVCAR-8
  GI50: 16.4 µM (inactive)
RPMI-8226
  GI50: 24.3 µM (inactive)
SF-295
  GI50: 18.1 µM (inactive)
SK-MEL-2
  GI50: 19.5 µM (inactive)
SK-OV-3
  GI50: 14 µM (inactive)
SNB-19
  GI50: 21.3 µM (inactive)
SNB-75
  GI50: 15.5 µM (inactive)
UO-31
  GI50: 17 µM (inactive)
